According to patent US8415469B2, “Compounds and methods for kinase modulation, and indications therefor” (Plexxikon Inc., priority 2005, dated 2013):

Experiments:
Type in all cases: biochemical
B-Raf V600E = biological target: T1, B-Raf V600E (Homo sapiens, UniProt P15056, V600E); test: AlphaScreen kinase assay, B-Raf V600E; settings: read-out: IC50, activity toward kinase B-Raf V600E
T1 construct: P4254. pFastBacBD-CDC37 BRAF D437-K722-X, V600E; His6 with pFastBac HT leader (TEV site) (N); made in house; host or cells: Sf9 (baculovirus; chaperone CDC37 co-expressed)

Ret = biological target: T2, Ret (Homo sapiens, UniProt P07949); test: AlphaScreen kinase assay, Ret; settings: read-out: IC50, activity toward kinase Ret
T2 construct: P1378.pET-SF BI-PTP RET H661-R1012 HIS; made in house
T2 sequence (P07949 with tags, fused parts or gaps): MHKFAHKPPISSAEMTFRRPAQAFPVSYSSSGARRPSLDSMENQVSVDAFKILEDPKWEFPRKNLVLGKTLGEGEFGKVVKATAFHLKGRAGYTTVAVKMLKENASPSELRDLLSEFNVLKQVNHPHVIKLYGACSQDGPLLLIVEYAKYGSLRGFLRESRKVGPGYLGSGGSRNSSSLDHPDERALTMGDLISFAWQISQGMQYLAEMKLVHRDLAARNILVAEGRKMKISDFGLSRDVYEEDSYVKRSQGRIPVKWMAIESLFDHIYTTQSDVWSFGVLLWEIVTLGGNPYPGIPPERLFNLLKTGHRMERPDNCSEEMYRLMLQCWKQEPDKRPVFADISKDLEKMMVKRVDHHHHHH

FGFR1 = biological target: T3, FGFR1 (Homo sapiens, UniProt P11362, C488A/C584S); test: AlphaScreen kinase assay, FGFR1; settings: read-out: IC50, activity toward kinase FGFR
T3 construct: P1351.pET N6 BI-PTP FGFR A458-E765-X C488A, C584S; made in house; host or cells: E. coli (PTP1B co-expressed)
T3 sequence (P11362 458-765 C488A/C584S): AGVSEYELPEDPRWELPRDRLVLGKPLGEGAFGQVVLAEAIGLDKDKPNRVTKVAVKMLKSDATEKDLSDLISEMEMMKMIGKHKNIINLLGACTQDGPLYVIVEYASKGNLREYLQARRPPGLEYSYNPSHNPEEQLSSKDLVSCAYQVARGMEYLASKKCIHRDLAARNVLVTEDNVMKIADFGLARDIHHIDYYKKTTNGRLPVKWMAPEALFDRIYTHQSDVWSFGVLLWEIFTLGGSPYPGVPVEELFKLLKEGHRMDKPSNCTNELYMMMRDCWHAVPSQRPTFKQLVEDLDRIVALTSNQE

T1 sequence (P15056 with tags, fused parts or gaps V600E): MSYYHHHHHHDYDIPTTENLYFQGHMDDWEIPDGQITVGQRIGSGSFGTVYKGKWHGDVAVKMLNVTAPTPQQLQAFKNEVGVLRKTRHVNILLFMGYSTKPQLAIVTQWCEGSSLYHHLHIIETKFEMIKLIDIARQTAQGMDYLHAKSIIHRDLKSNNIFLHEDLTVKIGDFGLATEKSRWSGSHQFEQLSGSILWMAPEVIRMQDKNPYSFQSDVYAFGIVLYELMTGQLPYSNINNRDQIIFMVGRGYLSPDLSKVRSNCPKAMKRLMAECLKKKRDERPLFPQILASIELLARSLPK

IC50 (B-Raf V600E) | IC50 (Ret) | IC50 (FGFR1) | SMILES
≤ 10 µM | ≤ 10 µM | – | CS(=O)(=O)Nc1cccc(-c2ccnc3[nH]cc(C(=O)c4cccc(Cl)c4Cl)c23)c1 [Compound P-0231]
– | ≤ 10 µM | ≤ 10 µM | O=C(c1cccc(Cl)c1Cl)c1c[nH]c2nccc(Cl)c12 [Compound P-0232]
≤ 10 µM | ≤ 10 µM | ≤ 10 µM | O=C(c1ccccc1)c1c[nH]c2nccc([N+](=O)[O-])c12 [Compound P-0246]
≤ 10 µM | ≤ 10 µM | – | O=C(c1cccc(Cl)c1Cl)c1c[nH]c2nccc(-c3ccsc3)c12 [Compound P-0347]
– | ≤ 10 µM | ≤ 10 µM | COc1cccc(C(=O)c2c[nH]c3nccc(-c4cccc(NC(C)=O)c4)c23)c1 [Compound P-0363]
≤ 10 µM | ≤ 10 µM | – | O=C(c1ccccc1F)c1c[nH]c2nccc(-c3ccc(Cl)cc3)c12 [Compound P-0472]
– | ≤ 10 µM | ≤ 10 µM | COc1ccc(-c2ccnc3[nH]cc(C(=O)c4cccc(O)c4)c23)cn1 [Compound P-0520]
– | ≤ 10 µM | – | Cc1c(Cl)cc(F)cc1S(=O)(=O)NCc1cc2cccnc2[nH]1 [Compound P-0533]
– | ≤ 10 µM | – | COc1ccc(-c2ccnc3[nH]cc(C(=O)c4ccccc4C)c23)cn1 [Compound P-0536]
– | ≤ 10 µM | – | Fc1cnc(F)c(F)c1Cc1c[nH]c2ncc(-c3ccsc3)cc12 [Compound P-0596]
– | ≤ 10 µM | – | Cc1cc(C(=O)c2c[nH]c3ncc(Br)cc23)no1 [Compound P-0608]
≤ 10 µM | ≤ 10 µM | – | O=C(c1cc(F)ccc1F)c1c[nH]c2nccc(-c3ccc(Cl)cc3)c12 [Compound P-0638]
– | ≤ 10 µM | – | CS(=O)(=O)Nc1cccc(-c2ccnc3[nH]cc(C(=O)c4ccc(Cl)cc4)c23)c1 [Compound P-0678]
– | ≤ 10 µM | – | O=S(=O)(NCc1c[nH]c2ncccc12)c1cc(Br)cc(Cl)n1 [Compound P-0726]
– | ≤ 10 µM | – | Cc1nc(-c2ccc(S(=O)(=O)NCc3c[nH]c4ncccc34)s2)cs1 [Compound P-0735]
– | ≤ 10 µM | ≤ 10 µM | Cc1cc(C(=O)c2c[nH]c3ncc(-c4cccnc4)cc23)no1 [Compound P-0826]
– | ≤ 10 µM | – | CS(=O)(=O)Nc1ccc(F)c(C(=O)c2c[nH]c3ncccc23)c1 [Compound P-0881]
– | ≤ 10 µM | ≤ 10 µM | NC(=O)c1ccc(-c2cnc3[nH]cc(C(=O)c4cccc(Cl)c4Cl)c3c2)cc1 [Compound P-0977]
– | ≤ 10 µM | – | Cc1ccc(F)cc1C(=O)c1c[nH]c2nccc(-c3cccc(/C=C/C(=O)O)c3)c12 [Compound P-0985]
≤ 10 µM | ≤ 10 µM | – | Cc1cc(C(=O)c2c[nH]c3nccc(-c4ccc(C(N)=O)cc4)c23)no1 [Compound P-1007]
≤ 10 µM | ≤ 10 µM | – | Cc1ccc(F)cc1C(=O)c1c[nH]c2nccc(-c3ccc(C(N)=O)cc3)c12 [Compound P-1024]
≤ 10 µM | ≤ 10 µM | – | Cc1cc(C(=O)c2c[nH]c3nccc(-c4cccc(NS(C)(=O)=O)c4)c23)no1 [Compound P-1025]
≤ 10 µM | ≤ 10 µM | – | Cc1cc(C(=O)c2c[nH]c3nccc(-c4ccsc4)c23)no1 [Compound P-1026]
≤ 10 µM | ≤ 10 µM | – | Cc1cc(C(=O)c2c[nH]c3nccc(-c4cccnc4)c23)no1 [Compound P-1029]
≤ 10 µM | ≤ 10 µM | – | Cc1cc(C(=O)c2c[nH]c3nccc(-c4cccc(S(C)(=O)=O)c4)c23)no1 [Compound P-1031]
– | ≤ 10 µM | – | Cc1cc(C(=O)c2c[nH]c3nccc(-c4cccc(C(N)=O)c4)c23)no1 [Compound P-1036]
– | ≤ 10 µM | ≤ 10 µM | COc1cccc(C(=O)c2c[nH]c3nccc(-c4cccc(/C=C/C(=O)O)c4)c23)c1 [Compound P-1066]

IC50 (B-Raf V600E) | IC50 (Ret) | IC50 (FGFR1) | SMILES
– | ≤ 10 µM | – | Cc1cc(C(=O)c2c[nH]c3ncc(-c4cccc(/C=C/C(=O)O)c4)cc23)no1 [Compound P-1072]
– | ≤ 10 µM | – | CC(=O)Nc1cccc(-c2ccnc3[nH]cc(C(=O)c4ccc(Cl)cc4)c23)c1 [Compound P-1075]
≤ 10 µM | ≤ 10 µM | – | CC(=O)Nc1cccc(-c2ccnc3[nH]cc(C(=O)c4cc(C)on4)c23)c1 [Compound P-1085]
– | ≤ 10 µM | – | [O-][S+](c1ccccc1)c1c[nH]c2ncc(Br)cc12 (stereo not drawn) [Compound P-1097]
– | ≤ 10 µM | ≤ 10 µM | O=C(c1cc(F)ccc1F)c1c[nH]c2ncc(-c3cccnc3)cc12 [Compound P-1111]
≤ 10 µM | ≤ 10 µM | – | COc1ccc(-c2ccnc3[nH]cc(C(=O)c4cc(C)on4)c23)cn1 [Compound P-1113]
≤ 10 µM | ≤ 10 µM | – | COc1cccc(C(=O)c2c[nH]c3nccc(-c4cccnc4)c23)c1 [Compound P-1117]
– | ≤ 10 µM | – | Cc1ccc(F)cc1C(=O)c1c[nH]c2nccc(-c3cccnc3)c12 [Compound P-1121]
– | ≤ 10 µM | ≤ 10 µM | COc1cccc(C(=O)c2c[nH]c3nccc(-c4cccc(S(C)(=O)=O)c4)c23)c1 [Compound P-1125]
– | ≤ 10 µM | – | CC(=O)Nc1cccc(-c2ccnc3[nH]cc(C(=O)c4cc(F)ccc4C)c23)c1 [Compound P-1126]
– | ≤ 10 µM | – | Cc1ccc(F)cc1C(=O)c1c[nH]c2nccc(-c3cccc(S(C)(=O)=O)c3)c12 [Compound P-1129]
– | ≤ 10 µM | – | O=C(c1cccc(Cl)c1Cl)c1c[nH]c2nccc(-c3ccc(Cl)cc3)c12 [Compound P-1130]
– | ≤ 10 µM | – | Cc1ccc(F)cc1C(=O)c1c[nH]c2nccc(-c3ccc(Cl)cc3)c12 [Compound P-1133]
– | ≤ 10 µM | – | CS(=O)(=O)c1cccc(-c2ccnc3[nH]cc(C(=O)c4cccc(Cl)c4Cl)c23)c1 [Compound P-1134]
– | ≤ 10 µM | – | Cc1ccc(F)cc1C(=O)c1c[nH]c2nccc(-c3cccc(N)c3)c12 [Compound P-1135]
– | ≤ 10 µM | – | Cc1cc(C(=O)c2c[nH]c3ncc(-c4cccc(/C=C/C(=O)O)c4)cc23)nn1C [Compound P-1137]
– | ≤ 10 µM | – | Cc1cc(C(=O)c2c[nH]c3nccc(-c4ccc(Cl)cc4)c23)no1 [Compound P-1178]
– | ≤ 10 µM | – | COc1cccc(C(=O)c2c[nH]c3nccc(-c4cccc(NS(C)(=O)=O)c4)c23)c1 [Compound P-1185]
– | ≤ 10 µM | ≤ 10 µM | COc1cccc(C(=O)c2c[nH]c3nccc(-c4ccsc4)c23)c1 [Compound P-1188]
– | ≤ 10 µM | – | Cc1ccc(F)cc1C(=O)c1c[nH]c2nccc(-c3ccsc3)c12 [Compound P-1189]
– | ≤ 10 µM | – | COc1cccc(C(=O)c2c[nH]c3nccc(-c4ccc(Cl)cc4)c23)c1 [Compound P-1191]
– | ≤ 10 µM | – | COc1ccc(-c2ccnc3[nH]cc(C(=O)c4cc(F)ccc4C)c23)cn1 [Compound P-1192]
– | ≤ 10 µM | – | O=C(c1ccccc1)c1c[nH]c2ncc(-c3ccsc3)cc12 [Compound P-1193]
– | ≤ 10 µM | – | Cc1cc(C(=O)c2c[nH]c3nccc(-c4ccc(Cl)cc4)c23)n(C)n1 [Compound P-1196]
– | ≤ 10 µM | – | CS(=O)(=O)c1cccc(-c2ccnc3[nH]cc(C(=O)c4ccc(Cl)cc4)c23)c1 [Compound P-1198]
– | ≤ 10 µM | – | Cc1ccccc1C(=O)c1c[nH]c2nccc(-c3cccc(S(C)(=O)=O)c3)c12 [Compound P-1200]
– | ≤ 10 µM | – | Cc1ccccc1C(=O)c1c[nH]c2nccc(-c3ccc(Cl)cc3)c12 [Compound P-1201]
